Results taken from patent US8865914B2, “Fluorescent probes for detection of copper” (The Regents of the University of California, priority 2012, dated 2014).

Experiments:
[1] = Spectroscopic fluorescence response to Cu(I) and its pH dependency in HEPES buffer; format: physicochemical; settings: for fluorescence response to Cu(I): 20 mM HEPES, pH 7; for sensitivity of fluorescence to pH changes: physiological pH range
Protocol: (§1) Millipore water was used to prepare all aqueous solutions. All spectroscopic measurements were performed in 20 mM HEPES buffer, pH 7.0. Absorption spectra were recorded on a Varian Cary 50 spectrophotometer (Walnut Creek, Calif.) and fluorescence spectra were recorded on a Photo Technology International Quanta Master 4 L-format scan spectrofluorometer (Lawrenceville, N.J.) equipped with an LPS-220B 75-W xenon lamp and power supply, A-1010B lamp housing with integrated igniter, switchable 814 photocounting/analog photomultiplier detection unit, and MD5020 motor driver. Samples for absorption and emission measurements were contained in 1-cm×1-cm quartz cuvettes (1.4-mL volume, Starna, Atascadero, Calif.). Metals used in the selectivity assay were derived from their chloride salts or nitrate salts. The binding affinity of Cu^+ to the dyes was measured using thiourea as a competitive ligand to provide a buffered Cu^+ solution. Briefly, a 1-2 μM solution of dye was made in 20 mM HEPES, pH 7.0 and buffered with a known concentration of thiourea from a 500 mM stock in MilliQ H2O. Cu(I) was delivered in the form of [Cu(MeCN)4][PF6] from an acetonitrile stock solution (2 or 10 mM). The maximum acetonitrile concentration was 0.1%; this concentration of acetonitrile is not high enough to effectively compete with the dyes for Cu^+. Stability constants for thiourea binding were taken from the literature: β12=2.0×10^12, β13=2.0×10^14, β14=3.4×10^15. Martell, A. E.; Smith, R. M. Critical Stability Constants; Plenum Press: New York, 1989. The apparent dissociation constant (Kd) was determined using the following equation: (F−Fmin)/(Fmax−Fmin)=[Cu^+]/(Kd+[Cu^+]), where F is the observed fluorescence; Fmax is the fluorescence for the Cu^+:dye complex; Fmin is the fluorescence for the dye; and [Cu^+] is the ‘free’ Cu^+ available for complexation, which was calculated using the stability constants for thiourea and standard competition equilibrium expressions.

[2] = Metal selectivity assay (fluorescence response to various metal ions); format: binding; settings: 20 mM HEPES, pH 7
Protocol: as §1, with “Briefly, a 1-2 μM solution of dye was made in 20 mM HEPES, pH 7.0 and buffered with a known concentration of thiourea from a 500 mM stock in MilliQ H2O. Cu(I) was delivered in the form of [Cu(MeCN)4][PF6] from an acetonitrile stock solution (2 or 10 mM). The maximum acetonitrile concentration was 0.1%; this concentration of acetonitrile is not high enough to effectively compete with the dyes for Cu^+. Stability constants for thiourea binding were taken from the literature: β12=2.0×10^12, β13=2.0×10^14, β14=3.4×10^15. Martell, A. E.; Smith, R. M. Critical Stability Constants; Plenum Press: New York, 1989.” left out

HEK293 cells = assay: Flow cytometry and confocal live-cell imaging of intracellular Cu^+; format: cell-based, Human; settings: HEK293 cells loaded with 100 μM copper chloride, with or without copper chelator
Protocol: Cells were grown in the Tissue Culture Facility at the University of California, Berkeley with expert technical assistance from Ann Fischer and Michelle Yasukawa. HEK (Human Embryonic Kidney) 293T cells were cultured in Dulbecco's Modified Eagle Medium (DMEM, Invitrogen, Carlsbad, Calif.) supplemented with 10% Fetal Bovine Serum (FBS, Invitrogen, Carlsbad, Calif.) and glutamine (2 mM). Two days before imaging, cells were passed and plated on 12-mm glass coverslips coated with poly-L-lysine ([…], Sigma, St. Louis, Mo.). For all experiments, solutions of dyes (from 5 mM stocks in DMSO) were made in Dulbecco's Phosphate buffered saline (DPBS, GIBCO) without calcium chloride, magnesium chloride, magnesium sulfate, sodium bicarbonate, or phenol red. For copper treatment, HEK 293T cells were cultured as described above. One day prior to imaging, 100 μM CuCl2 was added to cells from a 100 mM aqueous stock solution. Cells were then incubated at 37° C., 5% CO2. After 10-12 hours, the media was exchanged for DPBS. Flowcytometry were performed with LSRFortessaTM cell analyzer (BD Biosciences) equipping 640 nm red laser and PE-Cy7 band pass filter. Cells were prepared as described above, and then 3-5 μM CS788 or […] […] Confocal fluorescence images were acquired at the Molecular Imaging Center at the University of California, Berkeley. […]

SKH1 mice = assay: Fluorescence imaging experiments in living mice; format: in vivo; settings: for detection of endogenous levels of copper in mice: fluorescence imaging in mice; for detection of changes in copper levels in living mice: mice injected i.p. with copper chloride, copper chelator (ATN-224) or both, then dye
Protocol: Fluorescence images of mice were acquired using a Xenogen IVIS Spectrum instrument. SKH1 mice were obtained from Charles River Labs. Mice were single or group-housed on a 12:12 light-dark cycle at 22° C. with free access to food and water. SKH1 mice, aged 5-10 weeks, were anesthetized with isoflurane and injected with 1) DPBS (i.p., 100 μL), 2) CuCl2 (i.p., 5 mg/kg in 50 μL of DPBS) and DBPS (i.p., 50 μL), 3) CuCl2 (i.p., 5 mg/kg in 50 μL of DPBS) and ATN-224 (i.p., 5 mg/kg in 50 μL of DPBS), or 4) ATN-224 (i.p., 5 mg/kg in 50 μL of DPBS) and DBPS (i.p., 50 μL). 0-24 hours later, the mice were anesthetized with isoflurane and injected (i.p.) with DPBS (50 μL) or a dye (0.1 mM, 50 μL) and imaged immediately or up to 10 days later. All animal studies were approved and performed according to the guidelines of the Animal Care and Use Committee of the University of California, Berkeley.

## CCCN1/C(=C/C=C2\CCCC(/C=C/C3=[N+](CCC)c4ccccc4C3(C)C)=C2Oc2ccc(N(CCSCCSCC)CCSCCSCC)cc2)C(C)(C)c2ccccc21.[I-] [CS788]
[1]
  fluorescence response to Cu(I): large fluorescence increase
  sensitivity of fluorescence to pH changes: insensitive to pH changes
[2]
  selectivity for Cu(I) over other transition metals, alkali metals and alkali earth metals: bind selectively to Cu(I)
HEK293 cells
  detection of copper level changes in living cells: increased fluorescence in cells loaded with copper chloride
SKH1 mice
  detection of endogenous levels of copper in mice: able to detect endogenous levels of copper
  detection of changes in copper levels in living mice: can detect changes in copper levels in mice

## CSCCCNc1ccc(OC2=C(/C=C/C3=[N+](CCC(=O)OCOC(C)=O)c4ccccc4C3(C)C)CCC/C2=C\C=C2\N(CCC(=O)OCOC(C)=O)c3ccccc3C2(C)C)cc1SCCCSC.[Br-] [CS790AM]
[1]
  fluorescence response to Cu(I): large fluorescence increase
  sensitivity of fluorescence to pH changes: insensitive to pH changes
[2]
  selectivity for Cu(I) over other transition metals, alkali metals and alkali earth metals: bind selectively to Cu(I)
HEK293 cells
  detection of copper level changes in living cells: increased fluorescence in cells loaded with copper chloride
SKH1 mice
  detection of endogenous levels of copper in mice: able to detect endogenous levels of copper
  detection of changes in copper levels in living mice: can detect changes in copper levels in mice
SKH1 mice; two-tailed Student's t-test, P<0.05, n=3, except the change between CS790AM and copper, ATN-244, and CS790AM
  changes in integrated fluorescence from individual mice: statistically significant
